Laboratory results reported in patent publication US9708314B2, “Heterocyclic amide compound” (NISSAN CHEMICAL INDUSTRIES, LTD., priority 2013, dated 2017).

Experiments:
Assay type in all cases: in vivo
Veronica persica = assay: Test Example 4: herbicidal effect by application to foliage (diluvial soil, plastic box); conditions: foliage application, 320 g/ha
Summary of the method: (§1)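 Greenhouse plants (25° C. to 30° C., 14 d, diluvial soil) receive a foliar spray of water-diluted emulsifiable formulation at defined g/ha. Grading after 3 weeks uses a six-step herbicidal-ratio scale, with 4 covering 70% to <90% and 1 covering 5% to <20%.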

Lolium multiflorum Lam. = assay: as above; conditions: foliage application, 320 g/ha
Summary of the method: as §1

Setaria viridis = assay: as above; conditions: foliage application, 320 g/ha
Summary of the method: as §1

[1] = tested on: Echinochloa crus-galli var. crus-galli; assay: as above; conditions: foliage application, 320 g/ha
Summary of the method: as §1

Amaranthus retroflexus = assay: as above; conditions: foliage application, 320 g/ha
Summary of the method: as §1

Stellaria media = assay: as above; conditions: foliage application, 320 g/ha
Summary of the method: as §1

Digitaria ciliaris = assay: as above; conditions: foliage application, 320 g/ha
Summary of the method: as §1

Abutilon theophrasti = assay: as above; conditions: foliage application, 320 g/ha
Summary of the method: as §1

Alopecurus myosuroides = assay: as above; conditions: foliage application, 320 g/ha
Summary of the method: as §1

Apera spica-venti. = assay: as above; conditions: foliage application, 320 g/ha
Summary of the method: as §1

Avena fatua = assay: as above; conditions: foliage application, 320 g/ha
Summary of the method: as §1

Chenopodium album = assay: as above; conditions: foliage application, 320 g/ha
Summary of the method: as §1

Galium spurium = assay: as above; conditions: foliage application, 320 g/ha
Summary of the method: as §1

Brassica campestris L. = assay: Test Example 4: effect on crop by application to foliage (diluvial soil, plastic box); conditions: foliage application, 320 g/ha
Summary of the method: as §1

Glycine max = assay: as above; conditions: foliage application, 320 g/ha
Summary of the method: as §1

[2] = tested on: Beta vulgaris ssp. vulgaris; assay: as above; conditions: foliage application, 320 g/ha
Summary of the method: as §1

Zea mays = assay: as above; conditions: foliage application, 320 g/ha
Summary of the method: as §1

Triticum aestivum = assay: as above; conditions: foliage application, 320 g/ha
Summary of the method: as §1

[3] = tested on: directly sowed Oryza sativa; assay: as above; conditions: foliage application, 320 g/ha
Summary of the method: as §1

[4] = tested on: Echinochloa oryzacola Vasing.; assay: Test Example 1: herbicidal activity, application before weed generation in submerged conditions; conditions: Application herbicide amount 320 g/ha; Seventeenth Table
Summary of the method: (§2)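 Water-diluted emulsion formulation is applied onto flood water (4 cm deep) covering alluvial soil on the day weed seeds are sown, after transplanting 2.5 leaf stage rice. Rates are expressed per hectare. Injury or control is graded 0–5 three weeks later.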

Scirpus juncoides = assay: as above; conditions: Application herbicide amount 320 g/ha; Seventeenth Table
Summary of the method: as §2

Monochoria vaginalis = assay: as above; conditions: Application herbicide amount 320 g/ha; Seventeenth Table
Summary of the method: as §2

SMILES	R (Veronica persica) herbicidal effect grade (Veronica persica)	K (Lolium multiflorum Lam.) herbicidal effect grade (Lolium multiflorum Lam.)	G (Setaria viridis) herbicidal effect grade (Setaria viridis)	H (Echinochloa crus-galli var. crus-galli) herbicidal effect grade [1]	N (Amaranthus retroflexus) herbicidal effect grade (Amaranthus retroflexus)	P (Stellaria media) herbicidal effect grade (Stellaria media)	F (Digitaria ciliaris) herbicidal effect grade (Digitaria ciliaris)	M (Abutilon theophrasti) herbicidal effect grade (Abutilon theophrasti)	J (Alopecurus myosuroides) herbicidal effect grade (Alopecurus myosuroides)	L (Apera spica-venti.) herbicidal effect grade (Apera spica-venti.)	I (Avena fatua) herbicidal effect grade (Avena fatua)	O (Chenopodium album) herbicidal effect grade (Chenopodium album)	Q (Galium spurium) herbicidal effect grade (Galium spurium)	g (Brassica campestris L.) effect on crop grade (Brassica campestris L.)	c (Glycine max) effect on crop grade (Glycine max)	f (Beta vulgaris ssp. vulgaris) effect on crop grade [2]	b (Zea mays) effect on crop grade (Zea mays)	e (Triticum aestivum) effect on crop grade (Triticum aestivum)	d (directly sowed Oryza sativa) effect on crop grade [3]	A: Echinochloa oryzicola Vasing. (herbicidal effect grade) [4]	further results
Cn1nnnc1NC(=O)c1ccc(C(F)(F)F)n2c(CSCC(F)(F)F)nnc12 [2-030]	5 (Herbicidal ratio of 90% or more (almost completely withered))	3 (Herbicidal ratio of 40% or more and less than 70%)	5 (Herbicidal ratio of 90% or more (almost completely withered))	5 (Herbicidal ratio of 90% or more (almost completely withered))	5 (Herbicidal ratio of 90% or more (almost completely withered))	5 (Herbicidal ratio of 90% or more (almost completely withered))	5 (Herbicidal ratio of 90% or more (almost completely withered))	5 (Herbicidal ratio of 90% or more (almost completely withered))	3 (Herbicidal ratio of 40% or more and less than 70%)	5 (Herbicidal ratio of 90% or more (almost completely withered))	4 (Herbicidal ratio of 70% or more and less than 90%)	5 (Herbicidal ratio of 90% or more (almost completely withered))	3 (Herbicidal ratio of 40% or more and less than 70%)	5 (Herbicidal ratio of 90% or more (almost completely withered))	0 (Herbicidal ratio of 5% or less (almost no effect))	5 (Herbicidal ratio of 90% or more (almost completely withered))	5 (Herbicidal ratio of 90% or more (almost completely withered))	3 (Herbicidal ratio of 40% or more and less than 70%)	4 (Herbicidal ratio of 70% or more and less than 90%)	5 (Herbicidal ratio of 90% or more (almost completely withered))	B: Scirpus juncoides (herbicidal effect grade) (Scirpus juncoides): 4 (Herbicidal ratio of 70% or more and less than 90%); C: Monochoria vaginalis (herbicidal effect grade) (Monochoria vaginalis): 4 (Herbicidal ratio of 70% or more and less than 90%)
CC[S+]([O-])c1nnc2c(C(=O)Nc3nnnn3C)ccc(C(F)(F)F)n12 (stereo not shown) [2-031]	5 (Herbicidal ratio of 90% or more (almost completely withered))	5 (Herbicidal ratio of 90% or more (almost completely withered))	5 (Herbicidal ratio of 90% or more (almost completely withered))	5 (Herbicidal ratio of 90% or more (almost completely withered))	5 (Herbicidal ratio of 90% or more (almost completely withered))	5 (Herbicidal ratio of 90% or more (almost completely withered))	5 (Herbicidal ratio of 90% or more (almost completely withered))	5 (Herbicidal ratio of 90% or more (almost completely withered))	4 (Herbicidal ratio of 70% or more and less than 90%)	5 (Herbicidal ratio of 90% or more (almost completely withered))	5 (Herbicidal ratio of 90% or more (almost completely withered))	5 (Herbicidal ratio of 90% or more (almost completely withered))	5 (Herbicidal ratio of 90% or more (almost completely withered))	5 (Herbicidal ratio of 90% or more (almost completely withered))	5 (Herbicidal ratio of 90% or more (almost completely withered))	5 (Herbicidal ratio of 90% or more (almost completely withered))	5 (Herbicidal ratio of 90% or more (almost completely withered))	5 (Herbicidal ratio of 90% or more (almost completely withered))	5 (Herbicidal ratio of 90% or more (almost completely withered))	5 (Herbicidal ratio of 90% or more (almost completely withered))	B: Scirpus juncoides (herbicidal effect grade) (Scirpus juncoides): 5 (Herbicidal ratio of 90% or more (almost completely withered)); C: Monochoria vaginalis (herbicidal effect grade) (Monochoria vaginalis): 5 (Herbicidal ratio of 90% or more (almost completely withered))
CC(C)[S+]([O-])c1nnc2c(C(=O)Nc3nnnn3C)ccc(C(F)(F)F)n12 (stereo not shown) [2-032]	5 (Herbicidal ratio of 90% or more (almost completely withered))	4 (Herbicidal ratio of 70% or more and less than 90%)	5 (Herbicidal ratio of 90% or more (almost completely withered))	5 (Herbicidal ratio of 90% or more (almost completely withered))	5 (Herbicidal ratio of 90% or more (almost completely withered))	5 (Herbicidal ratio of 90% or more (almost completely withered))	5 (Herbicidal ratio of 90% or more (almost completely withered))	5 (Herbicidal ratio of 90% or more (almost completely withered))	3 (Herbicidal ratio of 40% or more and less than 70%)	5 (Herbicidal ratio of 90% or more (almost completely withered))	5 (Herbicidal ratio of 90% or more (almost completely withered))	5 (Herbicidal ratio of 90% or more (almost completely withered))	5 (Herbicidal ratio of 90% or more (almost completely withered))	5 (Herbicidal ratio of 90% or more (almost completely withered))	5 (Herbicidal ratio of 90% or more (almost completely withered))	5 (Herbicidal ratio of 90% or more (almost completely withered))	5 (Herbicidal ratio of 90% or more (almost completely withered))	5 (Herbicidal ratio of 90% or more (almost completely withered))	5 (Herbicidal ratio of 90% or more (almost completely withered))	5 (Herbicidal ratio of 90% or more (almost completely withered))	B: Scirpus juncoides (herbicidal effect grade) (Scirpus juncoides): 5 (Herbicidal ratio of 90% or more (almost completely withered)); C: Monochoria vaginalis (herbicidal effect grade) (Monochoria vaginalis): 5 (Herbicidal ratio of 90% or more (almost completely withered))
Cn1nnnc1NC(=O)c1ccc(C(F)(F)F)n2c(C[S+](C)[O-])nnc12 (stereo not shown) [2-033]	5 (Herbicidal ratio of 90% or more (almost completely withered))	4 (Herbicidal ratio of 70% or more and less than 90%)	5 (Herbicidal ratio of 90% or more (almost completely withered))	5 (Herbicidal ratio of 90% or more (almost completely withered))	5 (Herbicidal ratio of 90% or more (almost completely withered))	5 (Herbicidal ratio of 90% or more (almost completely withered))	5 (Herbicidal ratio of 90% or more (almost completely withered))	5 (Herbicidal ratio of 90% or more (almost completely withered))	4 (Herbicidal ratio of 70% or more and less than 90%)	5 (Herbicidal ratio of 90% or more (almost completely withered))	5 (Herbicidal ratio of 90% or more (almost completely withered))	5 (Herbicidal ratio of 90% or more (almost completely withered))	5 (Herbicidal ratio of 90% or more (almost completely withered))	5 (Herbicidal ratio of 90% or more (almost completely withered))	4 (Herbicidal ratio of 70% or more and less than 90%)	5 (Herbicidal ratio of 90% or more (almost completely withered))	5 (Herbicidal ratio of 90% or more (almost completely withered))	4 (Herbicidal ratio of 70% or more and less than 90%)	5 (Herbicidal ratio of 90% or more (almost completely withered))	5 (Herbicidal ratio of 90% or more (almost completely withered))	B: Scirpus juncoides (herbicidal effect grade) (Scirpus juncoides): 4 (Herbicidal ratio of 70% or more and less than 90%); C: Monochoria vaginalis (herbicidal effect grade) (Monochoria vaginalis): 5 (Herbicidal ratio of 90% or more (almost completely withered))
